“Also recorded” adds a separate entry of the source. Where only a bound is given, the exact number is not on record here.

In experiment [1] the target is T1, carbonic anhydrase (CA) (Bos taurus, UniProt P00921). In words: Ligand-directed labeling of equimolar recombinant BSA/CA mixture, in-gel fluorescence. The class given is binding. The following applies: equimolar BSA and CA; probe 200 nM, B2(OH)4 100 μM, 10 min, PBS pH 7.4.
Description: An equimolar suspension of recombinant BSA and recombinant CA was prepared by combining BSA (22 μg, 1 mg/mL in PBS, pH 7.4) and CA (10 pg, 1 mg/mL in PBS, pH 7.4) in PBS, pH 7.4 (1 mL). This was approximately 333 nM of each protein. For each reaction, an aliquot of this mixture (97 μL) was added to a microcentrifuge tube. […] Sulfonamide competitor (21′, 1 μL, 5 mM solution in 1% DMSO/PBS; 50 μM final concentration) or PBS, pH 7.4 (1 μL) vehicle control was added to the samples. The tubes were incubated at rt for 30 min. Tetrahydroxydiboron (1 μL, 10 mM solution; 100 μM final concentration) was subsequently added with gentle mixing. The tubes were incubated at rt for an additional 10 min. Subsequently, CuAAC click-cocktail solution containing TAMRA-azide (6 μL) was added and the tubes were incubated at rt in the dark for 1 h.
For sample preparation, 5× sample loading buffer (25 μL) was added directly to the TAMRA-modified BSA/CA samples. The samples were subsequently heated to 95° C. for 10 min and then subjected to SDS-PAGE and in-gel fluorescence imaging. In-gel fluorescence imaging was performed on a Typhoon™ FLA 9500 (GE) at 532 nm with photomultiplier tube (PMT) setting of 300 V.
Experiment [2] addresses T2, CA2 (Homo sapiens, UniProt P00918).
T2 construct: endogenous in cells; host or cells: HEK293T
The experiment can be described thus: Labeling of endogenous CA in HEK293T cell lysate, streptavidin blot or pulldown and immunoblot against CA2. Format: binding. The settings on record: probe 200 nM; diboron 100 μM 10 min or UV irradiation 10 min. In general terms: In western blotting, separated proteins are transferred to a membrane and probed.
Description: For sample preparation, 5× sample loading buffer was added directly at least 10 μg aliquot of the clicked cell lysate clicked with biotin (picolyl) azide. The samples were subsequently heated to 95° C. for 10 min and loaded onto a BioRad Mini-PROTEAN® TGX™ Precast Protein gel, 4-20% (15 μL) and run in freshly prepared Tris-glycine running buffer (160 V, 50 min). The gel was washed (3×DI water) and transferred to a 0.2 μm PVDF membrane. After transfer, the membrane was washed (3×TBST) and blocked with 5% fish skin gelatin (or any appropriate blocking buffer for Western blot) in TBST (rt, 1 h), and subsequently incubated with the appropriate primary antibody (1:1000 dilution in 5% fish skin gelatin in TBST, rt, 1 h). The membrane was washed (3×TBST) and incubated with the appropriate secondary antibody (1:10000 dilution in 5% fish gelatin in TBST, rt, 1 h). The membrane was again washed thoroughly with TBST and imaged using a chemiluminescence imager (Amersham™ Imager 600, GE).
Samples were loaded onto a Bio-Rad Mini-PROTEAN® TGX™ Precast Protein 15-well gel, 4-20% (15 μL) alongside All Blue Prestained Protein Standard (Bio-Rad, 5 μL) as a ladder, and run in freshly prepared Tris-glycine running buffer (180 V, 45 min). The gel was washed (3×50 mL deionized water) and transferred to a 0.2 m low fluorescence PVDF membrane (Bio-Rad) using a semi-dry transfer apparatus (Bio-Rad Trans-Blot® Turbo™ Transfer System) and preprogrammed transfer setting (1.3 A, 25 V, 10 min).

Experiment [3] concerns the target T2, CA2. In words: In cellulo BARS labeling in live HEK293T cells, immunoblot against CA2. Format: cell-based. The following applies: probe 5 μM 2 h, wash, B2(OH)4 100 μM 10 min. On the procedure: HEK293T cells were cultured in DMEM containing 10% FBS (Sigma), 100 units/mL penicillin, and 0.1 mg/mL streptomycin (Sigma) in a humidified chamber at 37° C. under an ambient atmosphere with 5% CO2. After culturing to >80% confluency in 150 mm plates, the plates were removed from the incubator, the media was aspirated, and the cells were trypsinized at 37° C. with 0.25% trypsin, 0.1% EDTA in HBSS (3 mL). After 3 min, complete growth medium (7 mL) was added to the detached cells, and the cell suspension was transferred to a 50 mL centrifuge tube. Cells were pelleted (400×g, 4 min, 23° C.) and washed with 2×20 mL PBS, pH 7.4. At this point, the density of the cell suspension in PBS was determined by the trypan blue exclusion method. The cells were pelleted once more, and the volume of PBS was adjusted to produce a cell suspension with a final density of 2×10^7 cells/mL. The cell suspension was aliquoted into 2 mL microcentrifuge tubes (3×1 mL, 2×10^7 cells each). […] Competitor 21′ (50 μM final concentration, from a 500 mM stock in DMSO) was also added to the third tube. The samples were incubated at 37° C. with end-over-end rotation. After 2 h of incubation, the cells were pelleted (400×g, 4 min, 23° C.) and washed once with PBS, pH 7.4.

A further experiment has as its target T3, carbonic anhydrase (Bos taurus, UniProt P00921).
T3 construct: purchased MP Biomedicals; host or cells: bovine erythrocytes
The experiment can be described thus: Labeling site identification on recombinant carbonic anhydrase by nano-LC-MS/MS. More on the design: species or system bovine. The following applies: probe 10 μM, B2(OH)4 100 μM. As for the experimental part:
BARS probe 21′a: Enamine N-oxide 21′a (10 μL, 500 μM in PBS, pH 7.4; 10 μM final concentration) was added to an aliquot of recombinant CA from bovine erythrocytes ([…], MP Biomedicals) suspended in 480 μL PBS, pH 7.4 in a microcentrifuge tube and incubated at rt for 30 min. Tetrahydroxydiboron (10 μL, 5 mM in PBS, pH 7.4; 100 μM final concentration) was subsequently added and gently mixed. The tubes were incubated at rt for an additional 10 min. Subsequently, the sample was concentrated via spin filtration (Amicon® Ultra-0.5 mL, UFC500324, 10 kDa MWCO) following the manufacturer's recommended protocol. PBS was added after each filtration cycle and the concentration was repeated for a total of five times. The eluate was collected in a clean microcentrifuge tube and its concentration determined by NanoDrop (Thermo Fisher Scientific™).
An aliquot of carbonic anhydrase labeled with enamine N-oxide 21′a (prepared from the above procedure) was reduced with dithiothreitol (10 mM final concentration, 56° C., 30 min), alkylated with iodoacetamide (22.5 mM final concentration, rt, 30 min protected from light), and digested overnight with Glu-C (1:20) at 37° C. in 100 mM ammonium bicarbonate. Peptides were desalted using SP3 beads and analyzed by nano-LC-MS/MS using a nanoAcquity UPLC system interfaced to a QExactive HF mass spectrometer (Ficarro et al., Anal. Chem., 9:3440-3447 (2009)). […]

For experiment [4], the target named is T1, carbonic anhydrase (CA). In words: Intact mass spectrometry of recombinant carbonic anhydrase labeled with probe. The class given is binding, bovine. More on the design: purchased MP Biomedicals; host or cells: bovine erythrocytes. The settings on record: for labeling of CA (intact mass spectrometry): probe 10 μM, B2(OH)4 100 μM or UV irradiation 10 min. On the procedure: Tetrahydroxydiboron (10 μL, 5 mM in PBS, pH 7.4; 100 μM final concentration) was subsequently added and gently mixed. The tubes were incubated at rt for an additional 10 min. Subsequently, the sample was concentrated via spin filtration (Amicon® Ultra-0.5 mL, UFC500324, 10 kDa MWCO) following the manufacturer's recommended protocol. PBS was added after each filtration cycle and the concentration was repeated for a total of five times. The eluate was collected in a clean microcentrifuge tube and its concentration determined by NanoDrop (Thermo Fisher Scientific™).
The samples were then transferred onto a 24-well plate and UV irradiated (365 nm) for 10 min on ice. After every 2 min of irradiation, the plate was rotated […] to ensure complete and equal UV exposure. After irradiation, the samples were transferred to a spin filtration column (Amicon® Ultra-0.5 mL, UFC500324, 10 kDa MWCO) and concentrated following the manufacturer's recommended protocol. PBS was added after each filtration cycle, and the concentration was repeated for a total of five times. The eluate was collected in a clean microcentrifuge tube and its concentration determined by NanoDrop (Thermo Fisher Scientific™).
Replicate samples of carbonic anhydrase (n=4; labeled with enamine N-oxide 21′a or diazirine 21′b) were desalted on a self-packed column (500 μm I.D. fused silica packed with 5 cm POROSR2 resin) and gradient eluted (0→100% B in 1 min, A=200 mM acetic acid in water, B=200 mM acetic acid in acetonitrile) to the mass spectrometer (LTQ XL mass spectrometer, Thermo Fisher Scientific; spray voltage=5 kV). The mass spectrometer recorded full scan profile spectra n z 300-2000. Mass spectra were deconvoluted using MagTran version 1.03b2 (Zhang et al., J. Am. Chem. Soc. Mass. Spectrom., 3:225-244 (1998)). Percent labeling was calculated as intensity labeled protein/(intensity unlabeled protein+intensity labeled protein)×100%.

The test system of another experiment is validated targets. In words: Target identification in cell lysate: BARS probe, diboron activation, streptavidin pulldown, immunoblot against validated targets. The settings on record: K562 (24′a) or HepG2 (26′a) cell lysate; probe 1 μM, B2(OH)4 100 μM 10 min. The class given is binding. As for the experimental part:
The click-modified cell lysate (3 mg) was transferred to 15 mL centrifuge tubes and precipitated via methanol/chloroform precipitation using the following protocol. Methanol (6 mL) was added to the lysate and vortexed. Chloroform (1.5 mL) was subsequently added and vortexed. Finally, water (4 mL) was added and vortexed. The samples were centrifuged (3000×g, 5 min, 4° C.). The top aqueous layer was removed, and methanol (8 mL) was subsequently added and vortexed. The samples were centrifuged (3000×g, 5 min, 4° C.), the supernatant was removed, and the methanol wash was repeated once more. […]
Samples were loaded onto a Bio-Rad Mini-PROTEAN® TGX™ Precast Protein 15-well gel, 4-20% (15 μL) alongside All Blue Prestained Protein Standard (Bio-Rad, 5 μL) as a ladder, and run in freshly prepared Tris-glycine running buffer (180 V, 45 min). The gel was washed (3×50 mL deionized water) and transferred to a […] low fluorescence PVDF membrane (Bio-Rad) using a semi-dry transfer apparatus (Bio-Rad Trans-Blot® Turbo™ Transfer System) and preprogrammed transfer setting (1.3 A, 25 V, 10 min). […]
Enamine N-oxide probe (15 μL; 200 nM or 1 μM final concentration for probe 21′a, […] for probes 22′a-26′a) was added to a microcentrifuge tube containing cell lysate (3 mg, as determined by BCA assay) suspended in cold NP40 lysis buffer (1.455 mL). […]

T1 sequence (P00921 whole entry): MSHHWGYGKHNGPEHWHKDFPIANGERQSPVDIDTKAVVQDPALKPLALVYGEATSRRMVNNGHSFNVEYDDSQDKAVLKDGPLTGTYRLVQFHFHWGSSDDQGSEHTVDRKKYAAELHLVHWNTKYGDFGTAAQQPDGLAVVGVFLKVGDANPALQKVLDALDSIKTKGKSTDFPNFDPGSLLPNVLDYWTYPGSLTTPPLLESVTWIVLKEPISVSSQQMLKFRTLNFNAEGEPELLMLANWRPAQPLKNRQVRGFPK
T3 sequence (P00921 whole entry): as above

Turning to `C#CCCC[N+](C)([O-])C(Br)=CC(Cl)CCCC(=O)NCCCOCCOCCOCCCNC(=O)c1ccc(S(N)(=O)=O)cc1` (centres unmarked) [21′a, 23-Bromo-21-chloro-N-methyl-1,17-dioxo-N-(pent-4-yn-1-yl)-1-(4-sulfamoylphenyl)-6,9,12-trioxa-2,16-diazatricos-22-en-23-amine oxide], the “selectivity of labeling, CA over BSA” value at carbonic anhydrase (CA) [1] was “CA was preferentially labeled over BSA”. In addition, on CA2 [2], the “labeling of endogenous CA in HEK293T cell lysate” value is on record as “could also be labeled; also recorded: superior labeling”. Besides, the “target identification in live HEK293T cells (CA2)” value on CA2 [3] is “positively identified”. Moreover, the “labeling sites on CA N-terminal peptide” value at carbonic anhydrase was “His2 or His3”. Besides, on carbonic anhydrase (CA) [4] (51.8% vs 3.6% labeling), the “improvement of CA labeling, enamine N-oxide over diazirine” value is 14.4 fold. For the same molecule, the “labeling of CA (intact mass spectrometry)” value on carbonic anhydrase (CA) [4] turned out to be 51.8%.
Take `C#CCCC1(CCNC(=O)CCOCCOCCOCCNC(=O)c2ccc(S(N)(=O)=O)cc2)N=N1` [21′b, N-(15-(3-(but-3-yn-1-yl)-3H-diazirin-3-yl)-12-oxo-3,6,9-trioxa-13-azapentadecyl)-4-sulfamoylbenzamide, reference compound]: the “labeling of CA (intact mass spectrometry)” value at carbonic anhydrase (CA) [4] was found to be 3.6%.
`C#CCCC[N+](C)([O-])/C(Br)=C/C(Cl)CCCC(=O)NCCCCCCNc1cc(Nc2ncc(C(=O)Nc3c(C)cccc3Cl)s2)nc(C)n1` (centres unmarked) [24′a, (Z)-1-Bromo-3-chloro-7-((6-((6-((5-((2-chloro-6-methylphenyl)carbamoyl)thiazol-2-yl)amino)-2-methylpyrimidin-4-yl)amino)hexyl)amino)-N-methyl-7-oxo-N-(pent-4-yn-1-yl)hept-1-en-1-amine oxide]: the “additional targets pulled down” value with validated targets is “ABL and p38 pulled down”.
Consider `C#CCCC[N+](C)([O-])/C(Br)=C/C(Cl)CCCC(=O)N(C)[C@@H]1C[C@H]2O[C@@](C)([C@@H]1OC)n1c3ccccc3c3c4c(c5c6ccccc6n2c5c31)C(=O)NC4` (stereo partly drawn) [26′a, (Z)-1-Bromo-3-chloro-7-(((5S,6R,7R,9R)-6-methoxy-5-methyl-14-oxo-6,7,8,9,15,16-hexahydro-5H,14H-17-oxa-4b,9a,15-triaza-5,9-methanodibenzo[b,h]cyclonona[jkl]cyclopenta[e]-as-indacen-7-yl)(methyl)amino)-N-methyl-7-oxo-N-(pent-4-yn-1-yl)hept-1-en-1-amine oxide], for which, in the experiment with validated targets, the “additional targets pulled down” value is “PKC and SRC pulled down”.
As to `CCN(CC)C(=O)C=CCCc1ccccc1` [compound 13, reference compound], at CA2 [2], the “labeling of endogenous CA in HEK293T cell lysate” value is recorded as “barely perceptible”. The “protein labeled (intact mass spectrometry of CA)” value at carbonic anhydrase (CA) [4] (N-oxide probe plus diboron or diazirine probe plus UV irradiation) was less than 1%.
